According to US20260138990A1, “TRICYCLIC FUSED IMIDAZOLE COMPOUNDS AS CD38 MODULATORS AND USES THEREOF” (AEOVIAN PHARMACEUTICALS, INC., priority 2023, published 2026):

Legend:
[1] = target: T1, mouse CD38 (Mus musculus, UniProt P56528); test: NAD+ cyclase activity assay with mouse recombinant CD38 protein (ε-NAD fluorescence); format: biochemical; conditions: 0.6 nM mouse CD38, substrate ε-NAD, 30 min preincubation, fluorescence 300/410 nm
T1 construct: purchased Bio-Techne GmbH 4947-AC
T1 sequence (P56528 1-304): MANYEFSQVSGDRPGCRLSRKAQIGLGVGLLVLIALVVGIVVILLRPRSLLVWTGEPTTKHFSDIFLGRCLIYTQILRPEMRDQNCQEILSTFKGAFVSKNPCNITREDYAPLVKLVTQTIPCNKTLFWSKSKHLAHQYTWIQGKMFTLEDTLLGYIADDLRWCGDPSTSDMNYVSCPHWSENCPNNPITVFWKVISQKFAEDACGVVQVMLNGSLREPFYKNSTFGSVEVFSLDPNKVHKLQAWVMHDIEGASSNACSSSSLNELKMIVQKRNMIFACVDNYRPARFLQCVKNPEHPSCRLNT
How it was run: (§1)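 Twelve-point threefold compound dilutions were given 30 min at room temperature with 0.6 nM mouse or 1.9 nM human CD38 before […] ε-NAD was added (pH 7.5 HEPES/sucrose/Tween buffer). The rate came from the linear-phase slope of ex 300/em 410 nm fluorescence against vehicle and no-CD38 controls.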

[2] = target: T2, human CD38 (Homo sapiens, UniProt P28907); test: NAD+ cyclase activity assay with human recombinant CD38 protein (ε-NAD fluorescence); format: biochemical; conditions: 1.9 nM human CD38, substrate ε-NAD, 30 min preincubation, fluorescence 300/410 nm
T2 construct: purchased Bio-Techne GmbH AVI2404
T2 sequence (P28907 1-300): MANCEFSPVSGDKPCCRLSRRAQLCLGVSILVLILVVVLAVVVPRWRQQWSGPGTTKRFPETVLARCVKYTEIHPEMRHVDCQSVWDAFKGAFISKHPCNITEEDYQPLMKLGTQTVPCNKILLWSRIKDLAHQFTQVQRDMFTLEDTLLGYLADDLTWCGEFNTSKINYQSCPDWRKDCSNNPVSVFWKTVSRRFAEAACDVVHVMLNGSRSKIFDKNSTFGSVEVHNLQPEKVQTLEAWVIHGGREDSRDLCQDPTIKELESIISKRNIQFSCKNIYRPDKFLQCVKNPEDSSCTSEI
How it was run: as §1

SMILES	IC50 [1] [nM]	IC50 [2] [nM]
CCCS(=O)(=O)N[C@H]1CC[C@H](NC(=O)c2ccc3c(c2)-c2cncn2CCO3)CC1 [Compound 37A, N-((1r,4r)-4-(Propylsulfonamido)cyclohexyl)-5,6-dihydrobenzo[f]imidazo[1,5-d][1,4]oxazepine-10-carboxamide]	1 to 10	< 30
CS(=O)(=O)N1CCC(NC(=O)c2ccc3c(c2)-c2cncn2CCO3)CC1 [Compound 4A, N-(1-(Methylsulfonyl)piperidin-4-yl)-5,6-dihydrobenzo[f]imidazo[1,5-d][1,4]oxazepine-10-carboxamide]	1 to 10	< 30
O=C(N[C@H]1CC[C@@H](OC2CC(F)(F)C2)CC1)c1ccc2c(c1)-c1cncn1CCO2 [Compound 153A, N-((1s,4s)-4-(3,3-Difluorocyclobutoxy)cyclohexyl)-5,6-dihydrobenzo[f]imidazo[1,5-d][1,4]oxazepine-10-carboxamide]	10 to 100	100 to 1000
O=C(N[C@H]1CC[C@@H](NCCC(F)(F)F)CC1)c1ccc2c(c1)-c1cncn1CCO2 [Compound 111A, N-((1s,4s)-4-((3,3,3-Trifluoropropyl)amino)cyclohexyl)-5,6-dihydrobenzo[f]imidazo[1,5-d][1,4]oxazepine-10-carboxamide]	> 100	100 to 1000
COCC1COc2cc(NC(=O)c3ccc4c(c3)-c3cncn3CCO4)cnc2O1 (stereo not shown) [Compound 144A, N-(3-(Methoxymethyl)-2,3-dihydro-[1,4]dioxino[2,3-b]pyridin-7-yl)-5,6-dihydrobenzo[f]imidazo[1,5-d][1,4]oxazepine-10-carboxamide]	1 to 10	< 30
CS(=O)(=O)CCCO[C@H]1CC[C@@H](NC(=O)c2ccc3c(c2)-c2cncn2CCO3)CC1 [Compound 86A, N-((1s,4s)-4-(3-(Methylsulfonyl)propoxy)cyclohexyl)-5,6-dihydrobenzo[f]imidazo[1,5-d][1,4]oxazepine-10-carboxamide]	> 100	100 to 1000
O=C(NC1CCC(F)(F)C1)c1ccc2c(c1)-c1cncn1CCO2 (stereo not shown) [Compound 66A, N-(3,3-Difluorocyclopentyl)-5,6-dihydrobenzo[f]imidazo[1,5-d][1,4]oxazepine-10-carboxamide]	< 1	< 30
C[C@H](N[C@H]1CC[C@H](NC(=O)c2ccc3c(c2)-c2cncn2CCO3)CC1)C(F)(F)F [Compound 87A, N-((1r,4r)-4-(((S)-1,1,1-Trifluoropropan-2-yl)amino)cyclohexyl)-5,6-dihydrobenzo[f]imidazo[1,5-d][1,4]oxazepine-10-carboxamide]	< 1	< 30
C[C@@H]1CCC[C@H](C)[C@@H]1NC(=O)c1cc(F)c2c(c1)-c1cncn1CCO2 [Compound 178A, N-(cis-2-cis-6-Dimethylcyclohexyl)-8-fluoro-5,6-dihydrobenzo[f]imidazo[1,5-d][1,4]oxazepine-10-carboxamide]	1 to 10	< 30
CN(C)c1nc2cc(NC(=O)c3ccc4c(c3)-c3cncn3CCO4)ccc2s1 [Compound 49A, N-(2-(Dimethylamino)benzo[d]thiazol-5-yl)-5,6-dihydrobenzo[f]imidazo[1,5-d][1,4]oxazepine-10-carboxamide]	10 to 100	< 30
CC(C)(CO[C@H]1CC[C@H](NC(=O)c2ccc3c(c2)-c2cncn2CCO3)CC1)C(F)(F)F [Compound 120A, N-((1r,4r)-4-(3,3,3-Trifluoro-2,2-dimethylpropoxy)cyclohexyl)-5,6-dihydrobenzo[f]imidazo[1,5-d][1,4]oxazepine-10-carboxamide]	1 to 10	< 30
O=C(NC1CCC(F)(F)CC1)c1cc(F)c2c(c1)-c1cncn1CCO2 [Compound 73A, N-(4,4-Difluorocyclohexyl)-8-fluoro-5,6-dihydrobenzo[f]imidazo[1,5-d][1,4]oxazepine-10-carboxamide]	< 1	< 30
COCCO[C@H]1CC[C@H](NC(=O)c2cc3c(c(C(F)(F)F)c2)OCCn2cncc2-3)CC1 [Compound 55A, N-((1r,4r)-4-(2-Methoxyethoxy)cyclohexyl)-8-(trifluoromethyl)-5,6-dihydrobenzo[f]imidazo[1,5-d][1,4]oxazepine-10-carboxamide]	< 1	30 to 100
O=C(Nc1ccc2c(c1)CCO2)c1ccc2c(c1)-c1cncn1CCO2 [Compound 9A, N-(2,3-Dihydrobenzofuran-5-yl)-5,6-dihydrobenzo[f]imidazo[1,5-d][1,4]oxazepine-10-carboxamide]	1 to 10	< 30
O=C(Nc1ccc2c(n1)OCCO2)c1ccc2c(c1)-c1cncn1CCO2 [Compound 30A, N-(2,3-Dihydro-[1,4]dioxino[2,3-b]pyridin-6-yl)-5,6-dihydrobenzo[f]imidazo[1,5-d][1,4]oxazepine-10-carboxamide]	1 to 10	< 30
O=C(N[C@H]1CC[C@H](NCC(F)F)CC1)c1ccc2c(c1)-c1cncn1CCO2 [Compound 63A, N-((1r,4r)-4-((2,2-Difluoroethyl)amino)cyclohexyl)-5,6-dihydrobenzo[f]imidazo[1,5-d][1,4]oxazepine-10-carboxamide]	1 to 10	< 30
CS(=O)(=O)CCCO[C@H]1CC[C@H](NC(=O)c2ccc3c(c2)-c2cncn2CCO3)CC1 [Compound 85A, N-((1r,4r)-4-(3-(Methylsulfonyl)propoxy)cyclohexyl)-5,6-dihydrobenzo[f]imidazo[1,5-d][1,4]oxazepine-10-carboxamide]	1 to 10	< 30
COC(C)(C)CO[C@H]1CC[C@@H](NC(=O)c2ccc3c(c2)-c2cncn2CCO3)CC1 [Compound 128A, N-((1s,4s)-4-(2-Methoxy-2-methylpropoxy)cyclohexyl)-5,6-dihydrobenzo[f]imidazo[1,5-d][1,4]oxazepine-10-carboxamide]	10 to 100	100 to 1000
Cn1c(=O)c2cncn2c2cc(C(=O)N[C@@H]3CCCOC3)ccc21 [Compound 16A, (R)-5-Methyl-4-oxo-N-(tetrahydro-2H-pyran-3-yl)-4,5-dihydroimidazo[1,5-a]quinoxaline-8-carboxamide]	> 100	> 1000
CS(=O)(=O)C1CCC(NC(=O)c2ccc3c(c2)-c2cncn2CCO3)CC1 (stereo not shown) [Compound 146A, N-(4-(Methylsulfonyl)cyclohexyl)-5,6-dihydrobenzo[f]imidazo[1,5-d][1,4]oxazepine-10-carboxamide]	10 to 100	30 to 100
O=C(Nc1ccc(C(F)(F)F)nc1)c1ccc2c(c1)-c1cncn1CCO2 [Compound 10A, N-(6-(Trifluoromethyl)pyridin-3-yl)-5,6-dihydrobenzo[f]imidazo[1,5-d][1,4]oxazepine-10-carboxamide]	1 to 10	< 30
O=C(NC1CCC(F)(F)CC1)c1cc(Cl)c2c(c1)-c1cncn1CCO2 [Compound 137A, 8-Chloro-N-(4,4-difluorocyclohexyl)-5,6-dihydrobenzo[f]imidazo[1,5-d][1,4]oxazepine-10-carboxamide]	< 1	< 30
O=C(NC1CCC(F)(F)CC1)c1ccc2c(c1)-c1cncn1CCO2 [Compound 5A, N-(4,4-Difluorocyclohexyl)-5,6-dihydrobenzo[f]imidazo[1,5-d][1,4]oxazepine-10-carboxamide]	< 1	< 30
